The target of assay [1] is GDP-bound NRAS wild-type protein (Homo sapiens, UniProt P01111). Nature of the assay: Binding to NRAS by surface plasmon resonance (SPR), KD and KD ratio to KRAS. As to conditions: ratio of KD for GDP-bound NRAS wild-type protein to KD for KRAS. In a few lines:
(§1)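 Single-cycle kinetics on GDP-loaded biotin-Avi RAS captured to ~100–300 RU; 75 s ascending injections, 100 µL/min, 30°C. HBS pH 7.4 + 10 mM MgCl2/10 µM GDP/4% DMSO. 1:1 fit, KD.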
For orientation: SPR reads the build-up and loss of mass on a sensor chip optically.

Assay [2] deals with HRAS wild-type protein (Homo sapiens, UniProt P01112). Nature of the assay: Binding to HRAS by surface plasmon resonance (SPR), KD and KD ratio to KRAS. The conditions noted are these: ratio of KD for HRAS wild-type protein to KD for KRAS. In a few lines:
as §1

Assay [3] has as its system human lung cancer strain NCI-H441. It is filed as cell-based. In a few lines:
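Proliferation was scored by […] measured after the reagent was added to cultures kept at 37°C in 5% carbon dioxide.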

Broadly, the IC50 is the point on the concentration scale where inhibition reaches its midpoint.

HRAS wild-type protein, sequence (P01112 whole entry): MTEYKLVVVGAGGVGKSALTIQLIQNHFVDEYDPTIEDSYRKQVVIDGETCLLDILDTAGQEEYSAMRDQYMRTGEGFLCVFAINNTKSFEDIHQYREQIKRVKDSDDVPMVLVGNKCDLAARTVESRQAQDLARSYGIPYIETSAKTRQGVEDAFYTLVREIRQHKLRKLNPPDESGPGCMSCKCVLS
GDP-bound NRAS wild-type protein, sequence (P01111 whole entry): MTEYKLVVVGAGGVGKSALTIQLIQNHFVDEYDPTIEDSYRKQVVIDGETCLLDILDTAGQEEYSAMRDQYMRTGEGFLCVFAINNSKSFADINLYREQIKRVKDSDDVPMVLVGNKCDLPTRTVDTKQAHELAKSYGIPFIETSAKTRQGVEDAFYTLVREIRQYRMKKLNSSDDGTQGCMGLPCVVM

As for `CCO[C@@H]1C[C@H]2C(=O)NC3(CCC3)C(=O)N(C)[C@@H](C3CCCC3)C(=O)N(C)[C@H](C(=O)N(C)C)CC(=O)N(C)[C@@H](Cc3cccc(F)c3)C(=O)N[C@@H]([C@@H](C)CC)C(=O)N(C)CC(=O)N(C)[C@H]3CCCCCN(C3=O)[C@@H](Cc3ccc(C(F)(F)F)cc3)C(=O)N(C)CC(=O)N[C@@H](CCc3cc(F)c(C(F)(F)F)c(F)c3)C(=O)N2C1` [PP0935], in assay [1], the “NRAS /KRAS” value is “B (a compound having 3 or more and less than 10 is denoted as B)”. Besides, the “HRAS /KRAS” value in assay [2] is “B (a compound having 3 or more and less than 10 is denoted as B)”. Besides, in assay [3], the IC50 came to 26.9 nM.
As to `CCO[C@@H]1C[C@H]2C(=O)NC3(CCC3)C(=O)N(C)[C@@H](C3CCCC3)C(=O)N(C)[C@H](C(=O)N(C)C)CC(=O)N(C)[C@@H](Cc3ccc(F)cc3)C(=O)N[C@@H]([C@@H](C)CC)C(=O)N(C)CC(=O)N(C)[C@H]3CCCCCN(C3=O)[C@@H](Cc3ccc(C(F)(F)F)cc3)C(=O)N(C)CC(=O)N[C@@H](CCc3cc(F)c(C(F)(F)F)c(F)c3)C(=O)N2C1` [PP0936], the “NRAS /KRAS” value in assay [1] is “B (a compound having 3 or more and less than 10 is denoted as B)”. For the same compound, the “HRAS /KRAS” value in assay [2] is “B (a compound having 3 or more and less than 10 is denoted as B)”. Further, half-maximal inhibition in assay [3] (IC50) was put at 42.4 nM.
For the compound `CCO[C@@H]1C[C@H]2C(=O)NC3(CCC3)C(=O)N(C)[C@@H](C3CCCC3)C(=O)N(C)[C@H](C(=O)N(C)C)CC(=O)N(C)[C@@H](Cc3cccc(Cl)c3)C(=O)N[C@@H]([C@@H](C)CC)C(=O)N(C)CC(=O)N(C)[C@H]3CCCCCN(C3=O)[C@@H](Cc3ccc(C(F)(F)F)cc3)C(=O)N(C)CC(=O)N[C@@H](CCc3cc(F)c(C(F)(F)F)c(F)c3)C(=O)N2C1` [PP0939], the “NRAS /KRAS” value in assay [1] is “B (a compound having 3 or more and less than 10 is denoted as B)”. For the same compound, in assay [2], the “HRAS /KRAS” value is “B (a compound having 3 or more and less than 10 is denoted as B)”. Besides, in assay [3], the IC50 amounted to 114 nM.
As to `CCO[C@@H]1C[C@H]2C(=O)NC3(CCC3)C(=O)N(C)[C@@H](C3CCCC3)C(=O)N(C)[C@H](C(=O)N(C)C)CC(=O)N(C)[C@@H](Cc3ccc(Cl)cc3)C(=O)N[C@@H]([C@@H](C)CC)C(=O)N(C)CC(=O)N(C)[C@H]3CCCCCN(C3=O)[C@@H](Cc3ccc(C(F)(F)F)cc3)C(=O)N(C)CC(=O)N[C@@H](CCc3cc(F)c(C(F)(F)F)c(F)c3)C(=O)N2C1` [PP0940], in assay [1], the “NRAS /KRAS” value is “B (a compound having 3 or more and less than 10 is denoted as B)”. Besides, the “HRAS /KRAS” value in assay [2] was “C (A compound having a KD ratio of 0.1 or more and less than 3 is denoted as C)”. Besides, the IC50 in assay [3] came out at 110 nM.
With `CCO[C@@H]1C[C@H]2C(=O)NC3(CCC3)C(=O)N(C)[C@@H](C3CCCC3)C(=O)N(C)[C@H](C(=O)N(C)C)CC(=O)N(C)[C@@H](Cc3cccc(C)c3)C(=O)N[C@@H]([C@@H](C)CC)C(=O)N(C)CC(=O)N(C)[C@H]3CCCCCN(C3=O)[C@@H](Cc3ccc(C(F)(F)F)cc3)C(=O)N(C)CC(=O)N[C@@H](CCc3cc(F)c(C(F)(F)F)c(F)c3)C(=O)N2C1` [PP0942], in assay [1], the “NRAS /KRAS” value was “B (a compound having 3 or more and less than 10 is denoted as B)”. In addition, the “HRAS /KRAS” value in assay [2] was “B (a compound having 3 or more and less than 10 is denoted as B)”. The compound further displayed an IC50 in assay [3] of 66.1 nM.
Turning to `CCO[C@@H]1C[C@H]2C(=O)NC3(CCC3)C(=O)N(C)[C@@H](C3CCCC3)C(=O)N(C)[C@H](C(=O)N(C)C)CC(=O)N(C)[C@@H](Cc3ccc(C)cc3)C(=O)N[C@@H]([C@@H](C)CC)C(=O)N(C)CC(=O)N(C)[C@H]3CCCCCN(C3=O)[C@@H](Cc3ccc(C(F)(F)F)cc3)C(=O)N(C)CC(=O)N[C@@H](CCc3cc(F)c(C(F)(F)F)c(F)c3)C(=O)N2C1` [PP0943], the “NRAS /KRAS” value in assay [1] was “B (a compound having 3 or more and less than 10 is denoted as B)”. Besides, the “HRAS /KRAS” value in assay [2] was “B (a compound having 3 or more and less than 10 is denoted as B)”. This compound also gave an IC50 in assay [3] of 154 nM.
As for `CCO[C@@H]1C[C@H]2C(=O)NC3(CCC3)C(=O)N(C)[C@@H](C3CCCC3)C(=O)N(CC)[C@H](C(=O)N3CCOCC3)CC(=O)N(C)[C@@H](CC)C(=O)N[C@@H]([C@@H](C)CC)C(=O)N(C)CC(=O)N(C)[C@H]3CCCCCN(C3=O)[C@@H](Cc3ccc(C(F)(F)F)cc3)C(=O)N(C)CC(=O)N[C@@H](CCc3cc(F)c(C(F)(F)F)c(F)c3)C(=O)N2C1` [PP0944], the “NRAS /KRAS” value in assay [1] was “A (a compound having 10 or more and less than 20 is denoted as A)”. For the same compound, the “HRAS /KRAS” value in assay [2] is “A (a compound having 10 or more and less than 20 is denoted as A)”. The IC50 in assay [3] amounted to 344 nM.
Consider `CCO[C@@H]1C[C@H]2C(=O)NC3(CCC3)C(=O)N(C)[C@@H](C3CCCC3)C(=O)N(CC)[C@H](C(=O)N3CCOCC3)CC(=O)N(C)[C@@H](CO)C(=O)N[C@@H]([C@@H](C)CC)C(=O)N(C)CC(=O)N(C)[C@H]3CCCCCN(C3=O)[C@@H](Cc3ccc(C(F)(F)F)cc3)C(=O)N(C)CC(=O)N[C@@H](CCc3cc(F)c(C(F)(F)F)c(F)c3)C(=O)N2C1` [PP0945], for which the “NRAS /KRAS” value in assay [1] was “B (a compound having 3 or more and less than 10 is denoted as B)”. Moreover, the “HRAS /KRAS” value in assay [2] was “A (a compound having 10 or more and less than 20 is denoted as A)”. Also, it took 987 nM to reach half-maximal inhibition in assay [3] (IC50).
On to `CCO[C@@H]1C[C@H]2C(=O)NC3(CCC3)C(=O)N(C)[C@@H](C3CCCC3)C(=O)N(CC)[C@H](C(=O)N3CCOCC3)CC(=O)N(C)[C@@H](COC)C(=O)N[C@@H]([C@@H](C)CC)C(=O)N(C)CC(=O)N(C)[C@H]3CCCCCN(C3=O)[C@@H](Cc3ccc(C(F)(F)F)cc3)C(=O)N(C)CC(=O)N[C@@H](CCc3cc(F)c(C(F)(F)F)c(F)c3)C(=O)N2C1` [PP0946], for which the “NRAS /KRAS” value in assay [1] is “A (a compound having 10 or more and less than 20 is denoted as A)”. Besides, the “HRAS /KRAS” value in assay [2] was “B (a compound having 3 or more and less than 10 is denoted as B)”. The same compound had an IC50 in assay [3] of 378 nM.
Consider `CCO[C@@H]1C[C@H]2C(=O)NC3(CCC3)C(=O)N(C)[C@@H](C3CCCC3)C(=O)N(CC)[C@H](C(=O)N3CCOCC3)CC(=O)N(C)[C@@H](CCOC)C(=O)N[C@@H]([C@@H](C)CC)C(=O)N(C)CC(=O)N(C)[C@H]3CCCCCN(C3=O)[C@@H](Cc3ccc(C(F)(F)F)cc3)C(=O)N(C)CC(=O)N[C@@H](CCc3cc(F)c(C(F)(F)F)c(F)c3)C(=O)N2C1` [PP0947], for which, in assay [1], the “NRAS /KRAS” value is “A (a compound having 10 or more and less than 20 is denoted as A)”. Moreover, in assay [2], the “HRAS /KRAS” value is “A (a compound having 10 or more and less than 20 is denoted as A)”. In addition, the IC50 in assay [3] came out at 597 nM.
As for `CCO[C@@H]1C[C@H]2C(=O)NC3(CCC3)C(=O)N(C)[C@@H](C3CCCC3)C(=O)N(CC)[C@H](C(=O)N3CCOCC3)CC(=O)N(C)[C@@H](Cc3ccccc3)C(=O)N[C@@H]([C@@H](C)CC)C(=O)N(C)CC(=O)N(C)[C@H]3CCCCCN(C3=O)[C@@H](Cc3ccc(C(F)(F)F)cc3)C(=O)N(C)CC(=O)N[C@@H](CCc3cc(F)c(C(F)(F)F)c(F)c3)C(=O)N2C1` [PP0950], in assay [1], the “NRAS /KRAS” value is “A (a compound having 10 or more and less than 20 is denoted as A)”. For the same compound, the “HRAS /KRAS” value in assay [2] is “B (a compound having 3 or more and less than 10 is denoted as B)”. This compound also registered an IC50 in assay [3] of 958 nM.
For `CCO[C@@H]1C[C@H]2C(=O)NC3(CCC3)C(=O)N(C)[C@@H](C3CCCC3)C(=O)N(CC)[C@H](C(=O)N3CCOCC3)CC(=O)N(C)[C@@H](CCc3ccccc3)C(=O)N[C@@H]([C@@H](C)CC)C(=O)N(C)CC(=O)N(C)[C@H]3CCCCCN(C3=O)[C@@H](Cc3ccc(C(F)(F)F)cc3)C(=O)N(C)CC(=O)N[C@@H](CCc3cc(F)c(C(F)(F)F)c(F)c3)C(=O)N2C1` [PP0953], the “NRAS /KRAS” value in assay [1] was “A (a compound having 10 or more and less than 20 is denoted as A)”. Moreover, the “HRAS /KRAS” value in assay [2] was “A (a compound having 10 or more and less than 20 is denoted as A)”. The same compound yielded an IC50 in assay [3] of 1610 nM.
`CC[C@H](C)[C@@H]1NC(=O)[C@H](CC(C)C)N(C)C(=O)C[C@@H](C(=O)N2CCOCC2)N(CC)C(=O)[C@H](C2CCCC2)N(C)C(=O)C2(CCC2)NC(=O)[C@@H]2[C@H](O)CCN2C(=O)[C@H](CCc2cc(F)c(C(F)(F)F)c(F)c2)NC(=O)CN(C)C(=O)[C@H](Cc2ccc(C(F)(F)F)cc2)N2CCCCC[C@@H](C2=O)N(C)C(=O)CN(C)C1=O` [PP0955]: in assay [1], the “NRAS /KRAS” value is “A (a compound having 10 or more and less than 20 is denoted as A)”. Also, in assay [2], the “HRAS /KRAS” value is “A (a compound having 10 or more and less than 20 is denoted as A)”. In assay [3], this compound showed an IC50 of 6480 nM.
As for `CCO[C@@H]1C[C@H]2C(=O)NC3(CC=CC3)C(=O)N(C)[C@@H](C3CCCC3)C(=O)N(CC)[C@H](C(=O)N3CCOCC3)CC(=O)N(C)[C@@H](CC(C)C)C(=O)N[C@@H]([C@@H](C)CC)C(=O)N(C)CC(=O)N(C)[C@H]3CCCCCN(C3=O)[C@@H](Cc3ccc(C(F)(F)F)cc3)C(=O)N(C)CC(=O)N[C@@H](CCc3cc(F)c(C(F)(F)F)c(F)c3)C(=O)N2C1` [PP0956], the “NRAS /KRAS” value in assay [1] was “A (a compound having 10 or more and less than 20 is denoted as A)”. Further, the “HRAS /KRAS” value in assay [2] was “A (a compound having 10 or more and less than 20 is denoted as A)”. In assay [3], this compound displayed an IC50 of 690 nM.
`CC[C@H](C)[C@@H]1NC(=O)[C@H](COC)N(C)C(=O)C[C@@H](C(=O)N2CCOCC2)N(C)C(=O)[C@H](C2CCCC2)N(C)C(=O)C2(CCCC2)NC(=O)[C@@H]2CCCN2C(=O)[C@H](CCc2ccc(C(F)(F)F)c(Cl)c2)NC(=O)CN(C)C(=O)[C@H](Cc2ccc(F)cc2)N2CCCCC[C@@H](C2=O)N(C)C(=O)CN(C)C1=O` [PP0960]: the “NRAS /KRAS” value in assay [1] is “B (a compound having 3 or more and less than 10 is denoted as B)”. The “HRAS /KRAS” value in assay [2] was “B (a compound having 3 or more and less than 10 is denoted as B)”. The midpoint of inhibition in assay [3], the IC50, lay at 101 nM.

(Values after patent EP4603105A1, “PHARMACEUTICAL COMPOSITION CONTAINING CYCLIC COMPOUND HAVING SELECTIVE KRAS INHIBITORY EFFECT AGAINST HRAS AND NRAS” (CHUGAI SEIYAKU KABUSHIKI KAISHA, priority 2022, dated 2024).)
